Laboratory results reported in article PMC4786642, “Catch-bond mechanism of the bacterial adhesin FimH” (Nature Communications, 2016).
Where two headings read alike, the source gives them in different places.

Assays:
FimHL^K12 [1] = biological target: T1, FimHL^K12 (Escherichia coli, UniProt P08191); test: Equilibrium titration of FimHL with GN-FP-4 (fluorescence); type: binding, E. coli strain K12; parameters: The isolated lectin domains (residues 1–159) of both FimH variants; made in house; host or cells: E. coli HM125 (periplasm)
T1 sequence (P08191 22-180): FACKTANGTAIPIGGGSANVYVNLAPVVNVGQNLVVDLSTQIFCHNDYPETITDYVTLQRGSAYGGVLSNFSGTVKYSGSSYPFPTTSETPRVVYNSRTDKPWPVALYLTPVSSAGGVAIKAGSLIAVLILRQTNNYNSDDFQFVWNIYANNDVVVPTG
Procedure: (§1) The concentration of GN-FP-4 was kept constant at 1.0 or 2.0 nM and the concentration of FimHL was varied between 0 and 10 nM. The samples were equilibrated overnight, and their fluorescence intensities at 520 nm were recorded for 30 s and averaged. The experimental data were fitted according to equation (2).

FimHL^F18 [2] = biological target: T2, FimHL^F18 (Escherichia coli, UniProt P08191, N91S/S99N/V48A); test: as above; type: binding, E. coli strain F18; parameters: The isolated lectin domains (residues 1–159) of both FimH variants; made in house; host or cells: E. coli HM125 (periplasm), plasmid pfimHL^F18
T2 sequence (P08191 22-180 V48A/N91S/S99N): as the sequence (P08191 22-180) above, with V27A, N70S, S78N counted along it
Procedure: as §1

FimHL^K12 [3] = biological target: T1, FimHL^K12
FimHL^F18 [4] = biological target: T2, FimHL^F18
FimHL^K12 [5] = biological target: T1, FimHL^K12; conditions: HM
FimH^F18·DsG [6] = biological target: T3, FimH^F18·DsG (Escherichia coli, UniProt P08191, N91S/S99N/V48A); conditions: HM; for Kd: FimH^F18·DsG
T3 sequence (P08191 22-300 V48A/N91S/S99N, other chains not shown): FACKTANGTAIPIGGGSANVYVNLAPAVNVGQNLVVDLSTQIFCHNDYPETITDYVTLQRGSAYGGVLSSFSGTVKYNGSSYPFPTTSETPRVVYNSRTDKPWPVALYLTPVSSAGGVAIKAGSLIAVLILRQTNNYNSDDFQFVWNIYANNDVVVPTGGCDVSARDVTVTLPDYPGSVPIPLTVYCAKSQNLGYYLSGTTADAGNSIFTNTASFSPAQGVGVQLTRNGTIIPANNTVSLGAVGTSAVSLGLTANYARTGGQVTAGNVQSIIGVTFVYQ
Procedure: (§2) Measurements were performed with a stirred 1 × 0.4-cm quartz cuvette. […] The samples were equilibrated overnight, and their fluorescence intensities were recorded for 30 s and averaged.

FimHL^F18 [7] = biological target: T2, FimHL^F18; conditions: HM
FimH^K12·DsG [8] = biological target: T4, FimH^K12·DsG (Escherichia coli, UniProt P08191); type: binding, E. coli strain K12; conditions: HM, FimH^K12·DsG
T4 construct: those of the corresponding full-length FimH·DsG complexes; made in house; host or cells: E. coli HM125 (periplasm); DsG peptide synthetic, from JPT
T4 sequence (P08191 22-300, other chains not shown): as the sequence (P08191 22-300 V48A/N91S/S99N, other chains not shown) above, with A27V, S70N, N78S counted along it
Procedure: as §2

FimH^K12·DsG [9] = type: binding, E. coli strain K12; conditions: HM, FimH variant K12
Procedure: as §2

[10] = system: E. coli piliated with FimH^F18 or FimH^F18-Ala188Asp; test: Cell tracking on mannose-BSA-coated surfaces, static conditions (strain not separated); type: cell-based
From the text: (§3) The E. coli KB18 strain[67] was kindly provided by Professor Evgeni Sokurenko and served as host for the generation of recombinant strains. KB18 contains the pPKL114 plasmid, which encodes the whole fim operon with a translational stop linker upstream of the fimH gene. KB18 was co-transformed with the pGB2-24 plasmid, which was isolated from the ELT115 strain and encodes fimH^J96 (kindly provided by Professor Evgeni Sokurenko). Single-nucleotide point mutations were introduced in fimH^J96 using overlap extension PCR following standard molecular techniques to obtain fimH^F18 and fimH^F18-Ala188Asp. The PCR products were cloned into pGB2-24 by the ApaLI and SphI sites, and KB18 was transformed with the resulting plasmid.
E. coli strains were grown from frozen stocks in LB medium supplemented with antibiotics (100 μg ml^−1 ampicillin and 25 μg ml^−1 chloramphenicol) until late log phase (OD600 of 1.0–1.2) and diluted to an OD600 of 0.01 before movie acquisition.
Cell culture dishes (35 mm, Corning Inc., Corning, NY) were incubated with 50 μl of 50 μg ml^−1 1M-BSA in 0.02 M bicarbonate buffer for 75 min at 37 °C. The dishes were then washed three times and quenched with 0.1% PBS–BSA to remove unbound 1M-BSA and block remaining sites on the plastic surface to prevent nonspecific binding of bacteria. Controls were prepared by treating cell culture dishes with 0.1% PBS–BSA only. The bacterial suspension was added to the cell culture dishes for microscopy studies.
Cell tracking was carried out at room temperature under static conditions. A bacterial suspension of 50 μl in the late logarithmic growth phase was placed onto the cell culture dishes (diluted to OD600 of 0.01), and a cover slide was placed on top. The delay between sample placement and start of the movie acquisition was about 1 min. Time-lapse movies were recorded with a × 20 phase contrast objective using a CMOS digital camera (The Imaging Source Europe, Bremen, Germany) mounted on a Nikon Ti Eclipse inverted microscope and using the NIS Elements Basic Research software (Nikon, Zurich, Switzerland). Phase contrast images in an ∼5-μm-thick surface layer were taken at four to five frames per second over 5 min. The dead time of movie acquisition was ∼1 min. The resulting images were segmented by creating a projection of the average intensities over all frames to remove the background and by subsequent thresholding using the Maximum Entropy method in Fiji[68] to obtain binary images (examples shown in Supplementary Movies 1 and 2). […] Five to seven independent movies were recorded for each experimental set-up: FimH^F18 or FimH^F18-Ala188Asp on 1M-BSA-coated dishes and FimH^F18 and FimH^F18-Ala188Asp on BSA-coated cell culture dishes. […]

FimH^K12·DsG [11] = biological target: T4, FimH^K12·DsG; type: binding, E. coli strain K12; conditions: for Kd: HM, FimH^K12·DsG
Procedure: A constant FimH·DsG concentration of 1 or 2 μM was used. […] The fluorescence traces were globally fitted with Dynafit[59] according to a second-order binding and first-order dissociation reaction.

[12] = system: FimH^F18-Ala188Asp-piliated E. coli; test: Cell tracking on mannose-BSA-coated surfaces, static conditions; type: cell-based; conditions: in the presence of 200 μM HM; FimH^F18-Ala188Asp-piliated bacteria
From the text: as §3, with “plasmid. […]” for “plasmid.”
(§4) Cell tracking was carried out at room temperature under static conditions. […] Time-lapse movies were recorded with a × 20 phase contrast objective using a CMOS digital camera (The Imaging Source Europe, Bremen, Germany) mounted on a Nikon Ti Eclipse inverted microscope and using the NIS Elements Basic Research software (Nikon, Zurich, Switzerland). […] Five to seven independent movies were recorded for each experimental set-up: FimH^F18 or FimH^F18-Ala188Asp on 1M-BSA-coated dishes and FimH^F18 and FimH^F18-Ala188Asp on BSA-coated cell culture dishes. […]

[13] = system: FimH^F18-piliated E. coli; test: as above; type: cell-based; conditions: in the presence of 200 μM HM; FimH^F18-piliated bacteria
From the text: as §3, with “plasmid. […]” for “plasmid.”
as §4

FimH^F18·DsG [14] = biological target: T3, FimH^F18·DsG; conditions: for Kd: HM, FimH^F18·DsG

## O=C(NCCNC(=S)Nc1ccc2c(c1)C(=O)OC21c2ccc(O)cc2Oc2cc(O)ccc21)c1ccc(-c2ccc(O[C@H]3O[C@H](CO)[C@@H](O)[C@H](O)[C@@H]3O)c(Cl)c2)cc1 [GN-FP-4, 3′-Chloro-N-(2-(3-(3′,6′-dihydroxy-3-oxo-3H-spiro[isobenzofuran-1,9′-xanthen]-5-yl)-thioureido)ethyl)-4′-(α-D-mannopyranosyloxy)-biphenyl-4-carboxamide]
FimHL^K12 [1]; FimHL^K12, equilibrium fluorescence titration, read-out: Kd
  Kd: 0.07 nM
FimHL^K12 [1]; FimHL^K12, pH 7.4, 25 °C, read-out: Kd of GN-FP-4 binding
  Kd: 0.07 nM
FimHL^K12 [1]; FimHL^K12 and FimHL^F18
  fold higher affinity compared to HM: 16 fold
FimHL^F18 [2]
  Kd: 0.00018 µM

## CCCCCCCO[C@H]1O[C@H](CO)[C@@H](O)[C@H](O)[C@@H]1O [HM, n-heptyl α-D-mannoside]
FimHL^K12 [3]; HM binding to FimHL^K12, pH 7.4, 25 °C, calculated with koff and Kd
  kon (M^−1 s^−1): 1.8±0.6 × 10^5(d) M^−1 s^−1
FimHL^K12 [3]; HM dissociation from FimHL^K12, pH 7.4, 25 °C
  koff (s^−1): 2.0±0.4 × 10^−4 s^−1
FimHL^F18 [4]; HM binding to FimHL^F18, pH 7.4, 25 °C, calculated with koff and Kd
  kon (M^−1 s^−1): 1.2±0.4 × 10^5(d) M^−1 s^−1
FimHL^F18 [4]; HM dissociation from FimHL^F18, pH 7.4, 25 °C
  koff (s^−1): 3.5±0.8 × 10^−4 s^−1
FimHL^K12 [5]; FimHL^K12, displacement of GN-FP-4
  Kd: 0.0011 µM
FimHL^K12 [5]; read-out: Kd (equilibrium titration; M), FimHL^K12, pH 7.4, 25 °C, from competition equilibria with GN-FP-4
  Kd: 0.0011 µM
FimH^F18·DsG [6]; FimH variant F18
  Kd (FimH·DsG)/Kd (FimHL): 3,300
FimH^F18·DsG [6]; read-out: Kd (equilibrium titration; M), pH 7.4, 25 °C
  Kd: 9.9 µM
FimH^F18·DsG [6]; read-out: equilibrium dissociation constant (Kd), equilibrium titration
  Kd: 9.9 µM
FimHL^F18 [7]; FimHL^F18, displacement of GN-FP-4
  Kd: 0.003 µM
FimHL^F18 [7]; read-out: Kd (equilibrium titration; M), FimHL^F18, pH 7.4, 25 °C, from competition equilibria with GN-FP-4
  Kd: 0.003 µM
FimH^K12·DsG [8]; equilibrium titration, read-out: equilibrium dissociation constant (Kd)
  Kd: 3.6 µM
FimH^K12·DsG [8]; pH 7.4, 25 °C, read-out: Kd (equilibrium titration; M)
  Kd: 3.6 µM
FimH^K12·DsG [9]
  Kd (FimH·DsG)/Kd (FimHL): 3,300
[10]; in the presence of 200 μM HM
  reduction of permanent attachment to 1M-BSA: 85%
  reduction of transient attachment to 1M-BSA: 75%
[10]; in the presence of HM
  transient and permanent attachment to 1M-BSA: significantly reduced
[10]; upon addition of 100 µM HM
  bacterial velocity on 1M-BSA: increased
FimH^K12·DsG [11]; HM binding to FimH^K12·DsG, pH 7.4, 25 °C
  kon (M^−1 s^−1): 5.0±0.1 × 10^6 M^−1 s^−1
FimH^K12·DsG [11]; HM dissociation from FimH^K12·DsG, pH 7.4, 25 °C
  koff (s^−1): 2.2±0.1 × 10^1 s^−1
FimH^K12·DsG [11]; pH 7.4, 25 °C, ratio of rate constants, read-out: koff/kon
  Kd: 4.3 µM
FimH^K12·DsG [11]; pH 7.4, 25 °C, stopped-flow amplitudes, read-out: Kd (amplitude analysis; M)
  Kd: 4.2 µM
FimH^K12·DsG [11]; read-out: Kd (amplitudes of stopped-flow reactions)
  Kd: 4.2 ± 0.3 µM
[12]
  mean velocity on 1M-BSA: 5.9 μm s^−1
[13]
  mean velocity on 1M-BSA: 6.5 μm s^−1
FimH^F18·DsG [14]; HM binding to FimH^F18·DsG, pH 7.4, 25 °C
  kon (M^−1 s^−1): 4.9±0.1 × 10^6 M^−1 s^−1
FimH^F18·DsG [14]; HM dissociation from FimH^F18·DsG, pH 7.4, 25 °C
  koff (s^−1): 5.8±0.1 × 10^1 s^−1
FimH^F18·DsG [14]; read-out: Kd (amplitude analysis; M), pH 7.4, 25 °C, stopped-flow amplitudes
  Kd: 12 µM
FimH^F18·DsG [14]; read-out: Kd (amplitudes of stopped-flow reactions), amplitude analysis
  Kd: 12 ± 1 µM
FimH^F18·DsG [14]; read-out: koff/kon, pH 7.4, 25 °C, ratio of rate constants
  Kd: 12 µM
